Test results reported in patent US9956168B2, “Extended release drug-delivery contact lenses and methods of making” (Mercy Medical Research Institute, priority 2013, dated 2018).

System: MKP-1
Test: In vitro effective dose study (Western blots for MKP-1 on HeLa cells)
Assay type: cell-based
Conditions: HeLa cells incubated with varying concentration; extrapolated

CC(=O)OCC(=O)[C@@]1(O)CC[C@H]2[C@@H]3CCC4=CC(=O)C=C[C@]4(C)[C@H]3[C@@H](O)C[C@@]21C [Prednisolone-21-acetate]
in vitro effective dose: 5-10 ppm
